Assay results published in publication PMC5224920, “Assessing the mechanism and therapeutic potential of modulators of the human Mediator complex-associated protein kinases” (eLife, 2016).

Tested on: 12 single or co-culture in vitro tissue models of primary cells
Test: Culture/co-culture cell model panel, extracellular biomarkers (DiscoveRx); as to CCL2/MCP-1: reference of the scale not given here; as to CD141/Thrombomodulin: reference of the scale not given here; as to CD142/Tissue Factor: reference of the scale not given here; as to CD38: reference of the scale not given here; as to CD40: reference of the scale not given here; as to CD69: reference of the scale not given here; as to CXCL8/IL-8: reference of the scale not given here; as to CXCL9/MIG: reference of the scale not given here; as to IL-1alpha: reference of the scale not given here; as to M-CSF: reference of the scale not given here; as to PBMC Cytotoxicity: reference of the scale not given here; as to SRB: reference of the scale not given here; as to sPGE2: reference of the scale not given here; as to sTNF-alpha: reference of the scale not given here
Type: cell-based, human
[1] = HDF3CGF stimulated fibroblasts, 1.00E3 nM
[2] = HDF3CGF stimulated fibroblasts, 1.00E4 nM
[3] = HPNo Huvec+PBMC unstimulated, 1.00E0 nM
[4] = HPNo Huvec+PBMC unstimulated, 1.00E1 nM
[5] = HPNo Huvec+PBMC unstimulated, 1.00E2 nM
[6] = HPNo Huvec+PBMC unstimulated, 1.00E3 nM
[7] = HPNo Huvec+PBMC unstimulated, 1.00E4 nM

## CN1c2ccc(-c3cncc(Cl)c3N3CCC4(CC3)CNC(=O)O4)cc2CS1(=O)=O [CMPD2]
[1]
  EGFR: -0.052
  M-CSF: -0.096
  MMP-1: 0.008
  PAI-I: -0.00267
  Proliferation_72hr: -0.251
  SRB: 0.000361
  TIMP-1: -0.053
  TIMP-2: 0.124
[2]
  CCL2/MCP-1: -0.114
  CD54/ICAM-1: -0.054
  CD106/VCAM-1: 0.046
  CXCL8/IL-8: -0.128
  CXCL9/MIG: -0.076
  CXCL10/IP-10: 0.028
  CXCL11/I-TAC: -0.031
  Collagen I: 0.036
  Collagen III: 0.126
  EGFR: -0.055
  M-CSF: -0.106
  MMP-1: 0.00332
  PAI-I: -0.018
  Proliferation_72hr: -0.340
  SRB: -0.00651
  TIMP-1: -0.067
  TIMP-2: 0.106
[3]
  CCL2/MCP-1: 0.047
  CD38: 0.008
  CD40: -0.048
  CD106/VCAM-1: 0.122
  CD141/Thrombomodulin: 0.013
  CD142/Tissue Factor: 0.008
[4]
  CCL2/MCP-1: 0.017
  CD38: -0.016
  CD40: -0.068
  CD106/VCAM-1: 0.183
  CD141/Thrombomodulin: -0.006
  CD142/Tissue Factor: 0.035
[5]
  CCL2/MCP-1: 0.000304
  CD38: 0.014
  CD40: -0.055
  CD106/VCAM-1: 0.274
  CD141/Thrombomodulin: 0.005
  CD142/Tissue Factor: 0.003
[6]
  CCL2/MCP-1: 0.022
  CD38: -0.028
  CD40: -0.055
  CD106/VCAM-1: 0.205
  CD141/Thrombomodulin: 0.027
  CD142/Tissue Factor: -0.00853
[7]
  CCL2/MCP-1: 0.015
  CD38: -0.095
  CD40: -0.048
  CD106/VCAM-1: 0.147
  CD141/Thrombomodulin: 0.018
  CD142/Tissue Factor: -0.051
HPNo, 1.00E0 nM
  CD69: 0.011
  CXCL8/IL-8: 0.022
  CXCL9/MIG: 0.062
  M-CSF: 0.018
  SRB: -0.102
  sPGE2: 0.045
  sTNF-alpha: 0.140
HPNo, 1.00E1 nM
  CD69: -0.097
  CXCL8/IL-8: -0.006
  CXCL9/MIG: -0.00447
  M-CSF: -0.015
  SRB: -0.043
  sPGE2: 0.026
  sTNF-alpha: 0.045
HPNo, 1.00E2 nM
  CD69: 0.035
  CXCL8/IL-8: 0.008
  CXCL9/MIG: 0.020
  M-CSF: -0.038
  SRB: 0.011
  sPGE2: 0.045
  sTNF-alpha: 0.037
HPNo, 1.00E3 nM
  CD69: -0.007
  CXCL8/IL-8: 0.014
  CXCL9/MIG: -0.00342
  M-CSF: 0.051
  SRB: 0.00149
  sPGE2: 0.054
  sTNF-alpha: -0.000698
HPNo, 1.00E4 nM
  CD69: -0.024
  CXCL8/IL-8: 0.024
  CXCL9/MIG: -0.063
  M-CSF: -0.029
  SRB: -0.014
  sPGE2: 0.013
  sTNF-alpha: 0.230
LPS Huvec+PBMC, 1.00E0 nM
  CCL2/MCP-1: 0.007
  CD40: -0.057
  CD69: -0.008
  CD106/VCAM-1: 0.052
  CD141/Thrombomodulin: 0.041
  CD142/Tissue Factor: 0.093
  CXCL8/IL-8: -0.00258
  IL-1alpha: 0.057
  M-CSF: 0.019
  SRB: -0.024
  sPGE2: 0.070
  sTNF-alpha: 0.028
LPS Huvec+PBMC, 1.00E1 nM
  CCL2/MCP-1: -0.031
  CD40: -0.098
  CD69: -0.024
  CD106/VCAM-1: 0.019
  CD141/Thrombomodulin: 0.064
  CD142/Tissue Factor: 0.086
  CXCL8/IL-8: -0.035
  IL-1alpha: 0.041
  M-CSF: -0.003
  SRB: -0.065
  sPGE2: 0.126
  sTNF-alpha: 0.036
LPS Huvec+PBMC, 1.00E2 nM
  CCL2/MCP-1: -0.057
  CD40: -0.098
  CD69: 0.050
  CD106/VCAM-1: 0.052
  CD141/Thrombomodulin: 0.070
  CD142/Tissue Factor: 0.084
  CXCL8/IL-8: -0.122
  IL-1alpha: 0.033
  M-CSF: -0.006
  SRB: -0.068
  sPGE2: 0.155
  sTNF-alpha: 0.039
LPS Huvec+PBMC, 1.00E3 nM
  CCL2/MCP-1: -0.096
  CD40: -0.100
  CD69: 0.022
  CD106/VCAM-1: 0.055
  CD141/Thrombomodulin: 0.054
  CD142/Tissue Factor: 0.086
  CXCL8/IL-8: -0.148
  IL-1alpha: 0.00095
  M-CSF: -0.00124
  SRB: -0.066
  sPGE2: 0.173
  sTNF-alpha: 0.034
LPS Huvec+PBMC, 1.00E4 nM
  CCL2/MCP-1: -0.102
  CD40: -0.101
  CD69: 0.034
  CD106/VCAM-1: 0.035
  CD141/Thrombomodulin: 0.062
  CD142/Tissue Factor: 0.080
  CXCL8/IL-8: -0.154
  IL-1alpha: -0.070
  M-CSF: -0.021
  SRB: -0.070
  sPGE2: 0.182
  sTNF-alpha: -0.175
SAg, 1.00E0 nM
  CCL2/MCP-1: 0.032
  CD38: -0.023
  CD40: -0.085
  CD69: 0.033
  CXCL8/IL-8: 0.067
  CXCL9/MIG: -0.004
  PBMC Cytotoxicity: 0.038
  Proliferation: 0.024
  SRB: -0.013
SAg, 1.00E1 nM
  CCL2/MCP-1: -0.012
  CD38: -0.063
  CD40: -0.169
  CD69: 0.018
  CXCL8/IL-8: -0.038
  CXCL9/MIG: -0.018
  PBMC Cytotoxicity: 0.015
  Proliferation: 0.017
  SRB: -0.031
SAg, 1.00E2 nM
  CCL2/MCP-1: -0.066
  CD38: -0.040
  CD40: -0.131
  CD69: 0.026
  CXCL8/IL-8: -0.133
  CXCL9/MIG: -0.055
  PBMC Cytotoxicity: 0.00148
  Proliferation: 0.021
  SRB: -0.056
SAg, 1.00E3 nM
  CCL2/MCP-1: -0.072
  CD38: -0.069
  CD40: -0.122
  CD69: 0.050
  CXCL8/IL-8: -0.196
  CXCL9/MIG: -0.061
  PBMC Cytotoxicity: 0.00529
  Proliferation: 0.010
  SRB: -0.049
SAg, 1.00E4 nM
  CCL2/MCP-1: -0.111
  CD38: -0.058
  CD40: -0.144
  CD69: 0.006
  CXCL8/IL-8: -0.208
  CXCL9/MIG: -0.061
  PBMC Cytotoxicity: 0.00852
  Proliferation: -0.041
  SRB: -0.053
